Measured values: patent US20230203059A1, “MACROCYCLIC JAK INHIBITOR AND USES THEREOF” (Biopolar Hongye (Guangdong) Pharmaceutical Co. Ltd., priority 2020, published 2023)

Tests used:
Type in all cases: biochemical
JAK1 = JAK1 (Homo sapiens, UniProt P23458); assay: JAK kinase activity, homogeneous time-resolved fluorescence (JAK1 reaction system); settings: ATP 2 μM, JAK1 protein 0.2 ng/μL; read-out: JAK 1 activity
Procedure, shortened: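 HTRF assay: JAK1 (0.2 ng/μL) with 2 μM ATP and substrate in 50 mM Hepes pH 7.0, 5 mM MgCl2, 1 mM DTT, 1 h. Phospho-substrate antibody/XL-615 detection with EDTA; 665/615 nm ratio, excitation 320 nm. IC50 from Hill-type fit against no-enzyme and no-compound controls.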

TYK2 = TYK2 (Homo sapiens, UniProt P29597); assay: JAK kinase activity, homogeneous time-resolved fluorescence (TYK2 reaction system); settings: ATP 2 μM, TYK2 protein 0.2 ng/μL; read-out: TYK 2 activity
Chain of TYK2 (P29597 whole entry): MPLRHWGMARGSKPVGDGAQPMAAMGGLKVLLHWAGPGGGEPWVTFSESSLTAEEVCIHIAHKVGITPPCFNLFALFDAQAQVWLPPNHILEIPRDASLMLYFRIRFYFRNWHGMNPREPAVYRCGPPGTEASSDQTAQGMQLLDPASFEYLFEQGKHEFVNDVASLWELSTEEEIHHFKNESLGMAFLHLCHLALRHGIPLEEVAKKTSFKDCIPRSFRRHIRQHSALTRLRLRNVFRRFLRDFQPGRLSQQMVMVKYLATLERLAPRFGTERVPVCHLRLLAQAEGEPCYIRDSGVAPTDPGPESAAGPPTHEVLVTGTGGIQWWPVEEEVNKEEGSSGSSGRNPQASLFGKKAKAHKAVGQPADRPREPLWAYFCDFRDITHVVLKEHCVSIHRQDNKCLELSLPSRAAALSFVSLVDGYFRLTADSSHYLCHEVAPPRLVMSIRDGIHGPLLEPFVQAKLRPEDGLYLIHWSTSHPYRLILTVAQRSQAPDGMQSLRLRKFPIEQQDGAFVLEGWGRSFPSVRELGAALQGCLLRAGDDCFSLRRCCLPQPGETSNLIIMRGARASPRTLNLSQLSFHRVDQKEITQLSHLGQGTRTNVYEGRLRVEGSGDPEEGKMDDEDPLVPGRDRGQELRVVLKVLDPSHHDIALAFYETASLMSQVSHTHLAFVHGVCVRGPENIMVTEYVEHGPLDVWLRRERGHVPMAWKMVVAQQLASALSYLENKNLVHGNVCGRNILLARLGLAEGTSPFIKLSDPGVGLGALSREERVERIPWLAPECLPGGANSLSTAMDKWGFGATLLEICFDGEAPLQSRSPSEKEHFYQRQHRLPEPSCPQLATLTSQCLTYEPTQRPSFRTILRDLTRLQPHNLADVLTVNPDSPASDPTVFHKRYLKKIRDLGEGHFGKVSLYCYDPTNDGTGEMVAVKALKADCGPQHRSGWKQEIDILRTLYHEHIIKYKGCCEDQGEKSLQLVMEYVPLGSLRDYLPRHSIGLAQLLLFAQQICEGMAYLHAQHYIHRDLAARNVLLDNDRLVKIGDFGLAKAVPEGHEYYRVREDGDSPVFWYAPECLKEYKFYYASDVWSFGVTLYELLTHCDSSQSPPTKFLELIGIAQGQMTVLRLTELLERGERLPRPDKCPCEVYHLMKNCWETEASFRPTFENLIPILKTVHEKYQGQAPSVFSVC
Procedure, shortened: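 Activity read as the 665 nm/615 nm ratio after adding EDTA-containing detection mix with anti-phospho-substrate antibody and XL-615. Beforehand, 0.2 ng/μL TYK2, 2 μM ATP, substrate and compound reacted 1 h in pH 7.0 Hepes buffer with MgCl2 and DTT. IC50 fitted with Hill-slope equation.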

JAK2 = JAK2 (Homo sapiens, UniProt O60674); assay: JAK kinase activity, homogeneous time-resolved fluorescence (JAK2 reaction system); settings: ATP 2 μM, JAK2 protein 0.01 ng/μL
Chain of JAK2 (O60674 whole entry): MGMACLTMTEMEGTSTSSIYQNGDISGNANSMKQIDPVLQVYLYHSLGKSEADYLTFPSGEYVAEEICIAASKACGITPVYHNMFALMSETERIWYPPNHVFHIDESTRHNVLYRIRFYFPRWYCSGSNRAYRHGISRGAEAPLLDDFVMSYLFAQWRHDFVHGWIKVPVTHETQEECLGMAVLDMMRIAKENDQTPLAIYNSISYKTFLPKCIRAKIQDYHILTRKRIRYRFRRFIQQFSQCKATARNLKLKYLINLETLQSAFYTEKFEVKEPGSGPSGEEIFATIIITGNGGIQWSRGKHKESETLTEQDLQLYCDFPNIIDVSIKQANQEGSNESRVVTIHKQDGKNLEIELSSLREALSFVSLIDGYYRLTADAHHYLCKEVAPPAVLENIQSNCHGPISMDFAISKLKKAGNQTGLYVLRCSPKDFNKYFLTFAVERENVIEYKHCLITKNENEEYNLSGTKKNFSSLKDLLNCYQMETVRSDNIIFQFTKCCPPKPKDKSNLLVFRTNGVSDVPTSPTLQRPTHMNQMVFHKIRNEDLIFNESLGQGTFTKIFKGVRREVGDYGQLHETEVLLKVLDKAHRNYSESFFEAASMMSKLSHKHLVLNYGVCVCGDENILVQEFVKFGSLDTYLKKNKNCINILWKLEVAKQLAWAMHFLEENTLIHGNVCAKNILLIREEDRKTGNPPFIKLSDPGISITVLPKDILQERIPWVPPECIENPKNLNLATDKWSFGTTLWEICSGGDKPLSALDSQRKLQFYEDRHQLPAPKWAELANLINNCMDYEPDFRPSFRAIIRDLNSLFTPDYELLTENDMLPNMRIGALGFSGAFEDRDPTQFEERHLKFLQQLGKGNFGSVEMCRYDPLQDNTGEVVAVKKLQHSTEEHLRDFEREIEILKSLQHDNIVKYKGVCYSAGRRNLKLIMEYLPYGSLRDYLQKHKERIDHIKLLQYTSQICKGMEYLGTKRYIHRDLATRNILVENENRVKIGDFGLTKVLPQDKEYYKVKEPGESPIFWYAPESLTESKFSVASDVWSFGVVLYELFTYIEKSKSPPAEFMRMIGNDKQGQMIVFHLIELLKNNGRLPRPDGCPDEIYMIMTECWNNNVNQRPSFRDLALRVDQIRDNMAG
Procedure, shortened: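 IC50 derived by Hill-equation fit of the 665/615 nm time-resolved fluorescence ratio after EDTA-containing detection mix with anti-phosphosubstrate antibody. Preceding 1 h reaction contained 2 μM ATP, 0.01 ng/μL JAK2, substrate, 50 mM Hepes pH 7.0, 5 mM MgCl2, 1 mM DTT.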

JAK3 = target: T1, JAK3 (Homo sapiens, UniProt P52333); assay: JAK kinase activity, homogeneous time-resolved fluorescence (JAK3 reaction system); settings: ATP 2 μM, JAK3 protein 0.04 ng/μL; read-out: JAK 3 activity
T1 sequence (P52333 1-1124): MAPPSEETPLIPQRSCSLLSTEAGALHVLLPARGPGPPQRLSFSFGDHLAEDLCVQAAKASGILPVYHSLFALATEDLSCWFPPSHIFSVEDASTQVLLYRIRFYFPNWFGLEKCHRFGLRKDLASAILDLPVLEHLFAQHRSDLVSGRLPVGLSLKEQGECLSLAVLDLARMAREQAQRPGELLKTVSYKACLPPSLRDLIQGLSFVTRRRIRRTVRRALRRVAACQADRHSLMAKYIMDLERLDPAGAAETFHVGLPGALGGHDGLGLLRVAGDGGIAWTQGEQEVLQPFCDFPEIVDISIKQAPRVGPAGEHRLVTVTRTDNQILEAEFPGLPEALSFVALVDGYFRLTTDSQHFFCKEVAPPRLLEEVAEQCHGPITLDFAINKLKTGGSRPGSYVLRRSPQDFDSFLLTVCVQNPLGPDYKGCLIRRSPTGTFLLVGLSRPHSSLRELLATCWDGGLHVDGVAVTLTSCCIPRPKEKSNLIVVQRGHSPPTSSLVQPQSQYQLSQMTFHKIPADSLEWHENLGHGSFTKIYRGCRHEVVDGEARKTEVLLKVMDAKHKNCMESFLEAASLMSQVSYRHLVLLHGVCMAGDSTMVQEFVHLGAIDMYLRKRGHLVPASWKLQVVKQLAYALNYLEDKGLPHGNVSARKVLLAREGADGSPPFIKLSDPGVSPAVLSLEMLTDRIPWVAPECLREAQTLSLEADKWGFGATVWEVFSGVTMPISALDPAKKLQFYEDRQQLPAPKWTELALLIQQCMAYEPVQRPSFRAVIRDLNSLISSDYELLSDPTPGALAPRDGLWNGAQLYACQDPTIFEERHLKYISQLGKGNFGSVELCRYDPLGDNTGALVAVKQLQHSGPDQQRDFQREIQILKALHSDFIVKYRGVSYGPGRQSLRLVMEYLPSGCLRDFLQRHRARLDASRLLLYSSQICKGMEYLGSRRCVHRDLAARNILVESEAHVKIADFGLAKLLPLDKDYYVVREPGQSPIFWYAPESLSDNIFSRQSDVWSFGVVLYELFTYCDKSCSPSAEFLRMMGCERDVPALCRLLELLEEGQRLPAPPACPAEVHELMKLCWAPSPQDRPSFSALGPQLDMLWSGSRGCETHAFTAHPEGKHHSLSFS

Chain of JAK1 (P23458 whole entry): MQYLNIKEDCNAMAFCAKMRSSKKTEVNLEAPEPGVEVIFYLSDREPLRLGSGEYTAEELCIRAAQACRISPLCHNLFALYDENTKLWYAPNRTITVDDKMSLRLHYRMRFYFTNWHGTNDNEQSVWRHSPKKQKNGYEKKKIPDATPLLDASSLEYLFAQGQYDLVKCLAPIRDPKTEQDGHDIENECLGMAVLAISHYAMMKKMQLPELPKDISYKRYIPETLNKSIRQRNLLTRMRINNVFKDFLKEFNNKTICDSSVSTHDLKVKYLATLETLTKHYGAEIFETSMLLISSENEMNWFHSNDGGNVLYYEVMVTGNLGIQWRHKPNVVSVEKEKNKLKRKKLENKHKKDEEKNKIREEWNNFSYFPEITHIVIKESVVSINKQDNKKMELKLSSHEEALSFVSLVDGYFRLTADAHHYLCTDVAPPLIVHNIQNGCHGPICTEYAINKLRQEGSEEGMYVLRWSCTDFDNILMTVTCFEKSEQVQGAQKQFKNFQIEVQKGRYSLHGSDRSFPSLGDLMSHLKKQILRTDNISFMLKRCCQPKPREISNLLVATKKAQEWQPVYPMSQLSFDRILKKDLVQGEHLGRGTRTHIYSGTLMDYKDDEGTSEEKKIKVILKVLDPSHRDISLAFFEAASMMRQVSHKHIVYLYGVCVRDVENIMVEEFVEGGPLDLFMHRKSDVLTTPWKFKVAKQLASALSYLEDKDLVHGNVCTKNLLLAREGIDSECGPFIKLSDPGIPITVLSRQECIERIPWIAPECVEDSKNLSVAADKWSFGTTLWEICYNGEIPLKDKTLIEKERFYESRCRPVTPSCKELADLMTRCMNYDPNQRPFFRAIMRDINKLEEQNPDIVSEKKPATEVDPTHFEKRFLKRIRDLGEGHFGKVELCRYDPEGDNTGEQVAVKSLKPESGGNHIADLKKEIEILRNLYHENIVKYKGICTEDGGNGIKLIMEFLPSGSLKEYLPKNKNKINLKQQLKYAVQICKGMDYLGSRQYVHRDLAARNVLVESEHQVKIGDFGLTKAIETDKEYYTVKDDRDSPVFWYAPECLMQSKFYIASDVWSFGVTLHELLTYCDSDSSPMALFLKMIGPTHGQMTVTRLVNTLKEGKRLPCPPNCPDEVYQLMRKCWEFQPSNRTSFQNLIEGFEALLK

Row | SMILES | IC50 (JAK1) [nM] | IC50 (TYK2) [nM] | IC50 (JAK2) [nM] | IC50 (JAK3) [nM]
1 | COc1cc(F)cc(F)c1COc1ccc2cc1COCCCCNC(=O)c1ccc(c(N)c1)-c1ccnc(n1)N2 [Example 183, 1^2-amino-4^4-((2,4-difluoro-6-meth-oxybenzyl)oxy)-6-oxa-3,11-diaza-2(4,2)-pyrimidina-1(1,4),4(1,3)-di-benzenacyclododecaphan-12-one] | 1000 to 10000 | 1000 to 10000 | 101 to 1000 | < 10
2 | CC1CCOCc2cc(ccc2OC2CCCC2)Nc2nccc(n2)-c2ccc(cc2N)C(=O)NC1 (stereo not drawn) [Example 184, 1^2-amino-4^4-(cyclopentoxy)-9-meth-yl-6-oxa-3,11-diaza-2(4,2)-pyrimi-dina-1(1,4),4(1,3)-dibenzenacyclo-dodecaphan-12-one] | 1000 to 10000 | 1000 to 10000 | 101 to 1000 | < 10
3 | C[C@@H]1CCOCc2cc(ccc2OC2CCCC2)Nc2nccc(n2)-c2ccc(cc2N)C(=O)NC1 [Example 185, (R)-1-amino-4^4-(cyclopentoxy)-9-methyl-6-oxa-3,11-diaza-2(4,2)-py-rimidina-1(1,4),4(1,3)-dibenzena-cyclododecaphan-12-one] | 1000 to 10000 | 1000 to 10000 | 101 to 1000 | 11 to 100
4 | COc1cccc(F)c1COc1ccc2cc1COCC[C@@H](C)CNC(=O)c1ccc(c(N)c1)-c1ccnc(n1)N2 [Example 186, (R)-1^2-amino-4^4-((2-fluoro-6-meth-oxybenzyl)oxy)-9-methyl-6-oxa-3,11-diaza-2(4,2)-pyrimidina-1(1,4),4(1,3)-dibenzenacyclododecaphan-12-one] | 1000 to 10000 | 1000 to 10000 | 101 to 1000 | < 10
5 | CC(C)Oc1ccc2cc1COCC[C@@H](C)CNC(=O)c1ccc(c(N)c1)-c1ccnc(n1)N2 [Example 187, (R)-1^2-amino-4^4-isopropoxy-9-meth-yl-6-oxa-3,11-diaza-2(4,2)-pyri-midina-1(1,4),4(1,3)-dibenzenacyclo-dodecaphan-12-one] | 101 to 1000 | 101 to 1000 | 11 to 100 | 11 to 100
6 | COc1cc(F)cc(F)c1COc1ccc2cc1COCC[C@@H](C)CNC(=O)c1ccc(c(N)c1)-c1ccnc(n1)N2 [Example 188, (R)-1^2-amino-4^4-((2,4-difluoro-6-methoxybenzyl)oxy)-9-methyl-6-o-xa-3,11-diaza-2(4,2)-pyrimidina-1(1,4),4(1,3)-dibenzenacyclo-dodecaphan-12-one] | 1000 to 10000 | 1000 to 10000 | 101 to 1000 | 11 to 100
7 | CC(C)Oc1ccc2cc1COCC[C@H](C)CNC(=O)c1ccc(c(N)c1)-c1ccnc(n1)N2 [Example 189, (S)-1^2-amino-4^4-isopropoxy-9-meth-yl-6-oxa-3,11-diaza-2(4,2)-pyrimi-dina-1(1,4),4(1,3)-dibenzenacyclo-dodecaphan-12-one] | 101 to 1000 | > 10000 | 101 to 1000 | 11 to 100
8 | C[C@H]1CCOCc2cc(ccc2OC2CCCC2)Nc2nccc(n2)-c2ccc(cc2N)C(=O)NC1 [Example 190] | 1000 to 10000 | 1000 to 10000 | 101 to 1000 | 11 to 100
9 | COc1cc(F)cc(F)c1COc1ccc2cc1COCC[C@H](C)CNC(=O)c1ccc(c(N)c1)-c1ccnc(n1)N2 [Example 191, (S)-1^2-amino-4^4-((2,4-difluoro-6-methoxybenzyl)oxy)-9-methyl-6-x-xa-3,11-diaza-2(4,2)-pyrimidina-1(1,4),4(1,3)-dibenzenacyclo-dodecaphan-12-one] | 1000 to 10000 | 1000 to 10000 | 1000 to 10000 | 101 to 1000
10 | COc1cccc(F)c1COc1ccc2cc1COCC[C@H](C)CNC(=O)c1ccc(c(N)c1)-c1ccnc(n1)N2 [Example 192, (S)-1^2-amino-4^4-((2-fluoro-6-meth-oxybenzyl)oxy)-9-methyl-6-oxa-3,11-diaza-2(4,2)-pyrimidina-1(1,4),4(1,3)-dibenzenacyclo-dodecaphan-12-one] | 1000 to 10000 | > 10000 | 1000 to 10000 | 101 to 1000
11 | COc1cc(Cl)cc(F)c1COc1ccc2cc1COCCCCNC(=O)c1ccc(c(N)c1)-c1ccnc(n1)N2 [Example 193, 1^2-amino-4^4-((4-chloro-2-fluoro-6-methoxybenzyl)oxy)-6-oxa-3,11-diaza-2(4,2)-pyrimidina-1(1,4),4(1,3)-dibenzenacyclododecaphan-12-one] | 1000 to 10000 | 1000 to 10000 | 1000 to 10000 | 11 to 100

Results, then the compound that gave them:

Row | IC50 (JAK1) [nM] | IC50 (TYK2) [nM] | IC50 (JAK2) [nM] | IC50 (JAK3) [nM] | SMILES
12 | 1000 to 10000 | > 10000 | 101 to 1000 | 11 to 100 | COc1cc(F)cc(C#N)c1COc1ccc2cc1COCCCCNC(=O)c1ccc(c(N)c1)-c1ccnc(n1)N2 [Example 194, 2-(((1^2-amino-12-oxo-6-oxo-3,11-diaza-2(4,2)-pyrimidina-1(1,4),4(1,3)-dibenzenacyclododecaphan-4^4-yl)oxy)methyl)-5-fluoro-3-methoxy-benzonitrile]
13 | 1000 to 10000 | 1000 to 10000 | 1000 to 10000 | 11 to 100 | COc1cc(F)cc(Cl)c1COc1ccc2cc1COCCCCNC(=O)c1ccc(c(N)c1)-c1ccnc(n1)N2 [Example 195, 1^2-amino-4^4-((2-chloro-4-fluoro-6-methoxybenzyl)oxy)-6-oxa-3,11-diaza-2(4,2)-pyrimidina-1(1,4),4(1,3)-dibenzenacyclododecaphan-12-one]
14 | 1000 to 10000 | 1000 to 10000 | 101 to 1000 | < 10 | COc1cc(C#N)cc(F)c1COc1ccc2cc1COCCCCNC(=O)c1ccc(c(N)c1)-c1ccnc(n1)N2 [Example 196, 4-(((1^2-amino-12-oxo-6-oxa-3,11-diaza-2(4,2)-pyrimidina-1(1,4),4(1,3)-dibenzenacyclododecaphan-4^4-yl)oxy)methyl)-3-fluoro-5-methoxy-benzonitrile]
15 | 1000 to 10000 | 1000 to 10000 | 101 to 1000 | 11 to 100 | Nc1cc2ccc1-c1ccnc(n1)Nc1ccc(OC3CCCOC3)c(c1)COc1ccc(cc1)NC2=O (stereo not drawn) [Example 197, 1^2-amino-4^4-((tetrahydro-2H-pyran-3-yl)oxy)-6-oxa-3-8-diaza-2 (4,2)-pyrimidina-1,7(1,4), 4 (1,3)-tribenzenacyclononaphane-9-one]
16 | 1000 to 10000 | 1000 to 10000 | 101 to 1000 | 11 to 100 | CC(C)Oc1ccc2cc1COc1ccc(cc1)NC(=O)c1ccc(c(N)c1)-c1ccnc(n1)N2 [Example 198, 1^2-amino-4^4-isopropoxy-6-oxa-3,8-diaza-2(4,2)-pyrimidina-1,7(1,4),4(1,3)-tribenzenacyclononaphane-9-one]
17 | 101 to 1000 | 1000 to 10000 | 1000 to 10000 | 11 to 100 | Nc1cc2ccc1-c1ccnc(n1)Nc1ccc(OC3CC3)c(c1)COc1ccc(cc1F)NC2=O [Example 199, 1^2-amino-4^4-cyclopropoxy-7^2-fluoro-6-oxa-3,8-diaza-2(4,2)-pyrimidina-1,7(1,4),4(1,3)-tribenzenacyclonona-phane-9-one]
18 | 1000 to 10000 | > 10000 | 101 to 1000 | 11 to 100 | Nc1cc2ccc1-c1ccnc(n1)Nc1ccc(OC3CC3)c(c1)COc1ccc(cc1)NC2=O [Example 200, 1^2-amino-4^4-cyclopropoxy-6-oxa-3,8-diaza-2(4,2)-pyrimidina-1,7(1,4),4(1,3)-tribenzenacyclononanphane-9-one]
